Source: ChEMBL document CHEMBL3885881, “DrugMatrix”

Organism: Rattus norvegicus
Assay: DrugMatrix - Regimen: Daily Repeat
Assay type: toxicity, organism-based, Sprague-Dawley
Design: regimen Daily Repeat, gender Male, age 6-8 weeks
Conditions: in vivo, iv, vehicle 100 % SALINE; for ABSOLUTE BASOPHIL / ABSOLUTE EOSINOPHIL / ABSOLUTE LYMPHOCYTE / ABSOLUTE MONOCYTE / ABSOLUTE SEGMENTED NEUTROPHIL / BASOPHIL / EOSINOPHIL / ERYTHROCYTE COUNT / HEMATOCRIT / HEMOGLOBIN / LEUKOCYTE COUNT / LYMPHOCYTE / MEAN CORPUSCULAR HEMOGLOBIN / MEAN CORPUSCULAR HEMOGLOBIN CONCENTRATION / MEAN CORPUSCULAR VOLUME / MONOCYTE / NEUTROPHIL / NUCLEATED RED BLOOD CELLS / PLATELET COUNT: tissue Blood; for ALANINE AMINOTRANSFERASE / ALBUMIN / ALKALINE PHOSPHATASE / ASPARTATE AMINOTRANSFERASE / BLOOD UREA NITROGEN / CARBON DIOXIDE / CHLORIDE / CHOLESTEROL / CREATINE PHOSPHOKINASE / CREATININE / GLUCOSE / LACTATE DEHYDROGENASE / LIPASE / PHOSPHORUS / POTASSIUM / SODIUM / TOTAL BILIRUBIN / TOTAL PROTEIN / URIC ACID: tissue Plasma
[1] = 0 mg/kg, 72 h, dose level Control, time 3 day
[2] = 0 mg/kg, 120 h, dose level Control, time 5 day
[3] = 23 mg/kg, 72 h, dose level Low, time 3 day

## Nc1ccn([C@@H]2O[C@H](CO)[C@@H](O)[C@@H]2O)c(=O)n1 [CYTARABINE]
[1]
  ABSOLUTE BASOPHIL: 0 CELLS/uL
  ABSOLUTE EOSINOPHIL: 0 CELLS/uL
  ABSOLUTE LYMPHOCYTE: 7855.5 CELLS/uL
  ABSOLUTE MONOCYTE: 36.17 CELLS/uL
  ABSOLUTE SEGMENTED NEUTROPHIL: 575 CELLS/uL
  BASOPHIL: 0%
  EOSINOPHIL: 0%
  ERYTHROCYTE COUNT: 5.14 x10E6/uL
  HEMATOCRIT: 33.22%
  HEMOGLOBIN: 12.97 G/DL
  LEUKOCYTE COUNT: 8.47 x10E3/uL
  LYMPHOCYTE: 93.17%
  MEAN CORPUSCULAR HEMOGLOBIN: 25.28 pg
  MEAN CORPUSCULAR HEMOGLOBIN CONCENTRATION: 39.05 G/DL
  MEAN CORPUSCULAR VOLUME: 64.75 fL
  MONOCYTE: 0.33%
  NEUTROPHIL: 6.5%
  NUCLEATED RED BLOOD CELLS: 0 /100WBC
  PLATELET COUNT: 1092 x10E3/uL
  ALANINE AMINOTRANSFERASE: 61.67 u/L
  ALBUMIN: 4.03 G/DL
  ALKALINE PHOSPHATASE: 292.33 u/L
  ASPARTATE AMINOTRANSFERASE: 100.83 u/L
  BLOOD UREA NITROGEN: 11 mg/dL
  CARBON DIOXIDE: 34.67 mmol/L
  CHLORIDE: 100.25 MEQ/L
  CHOLESTEROL: 71.17 mg/dL
  CREATINE PHOSPHOKINASE: 554.5 u/L
  CREATININE: 0.31 mg/dL
  GLUCOSE: 151 mg/dL
  LACTATE DEHYDROGENASE: 88.67 u/L
  LIPASE: 18.83 u/L
  PHOSPHORUS: 10.42 mg/dL
  POTASSIUM: 5.7 MEQ/L
  SODIUM: 144.57 MEQ/L
  TOTAL BILIRUBIN: 0.17 mg/dL
  TOTAL PROTEIN: 5.8 G/DL
  URIC ACID: 0.52 mg/dL
[2]
  ABSOLUTE BASOPHIL: 0 CELLS/uL
  ABSOLUTE EOSINOPHIL: 53.33 CELLS/uL
  ABSOLUTE LYMPHOCYTE: 7739.83 CELLS/uL
  ABSOLUTE MONOCYTE: 74.83 CELLS/uL
  ABSOLUTE SEGMENTED NEUTROPHIL: 832 CELLS/uL
  BASOPHIL: 0%
  EOSINOPHIL: 0.67%
  ERYTHROCYTE COUNT: 5.55 x10E6/uL
  HEMATOCRIT: 34.77%
  HEMOGLOBIN: 13.62 G/DL
  LEUKOCYTE COUNT: 8.7 x10E3/uL
  LYMPHOCYTE: 89.17%
  MEAN CORPUSCULAR HEMOGLOBIN: 24.6 pg
  MEAN CORPUSCULAR HEMOGLOBIN CONCENTRATION: 39.2 G/DL
  MEAN CORPUSCULAR VOLUME: 62.78 fL
  MONOCYTE: 0.67%
  NEUTROPHIL: 9.5%
  NUCLEATED RED BLOOD CELLS: 0 /100WBC
  PLATELET COUNT: 1096 x10E3/uL
  ALANINE AMINOTRANSFERASE: 50 u/L
  ALBUMIN: 4.02 G/DL
  ALKALINE PHOSPHATASE: 271.17 u/L
  ASPARTATE AMINOTRANSFERASE: 84.17 u/L
  BLOOD UREA NITROGEN: 13.33 mg/dL
  CARBON DIOXIDE: 27 mmol/L
  CHLORIDE: 99 MEQ/L
  CHOLESTEROL: 68 mg/dL
  CREATINE PHOSPHOKINASE: 313.67 u/L
  CREATININE: 0.21 mg/dL
  GLUCOSE: 163 mg/dL
  LACTATE DEHYDROGENASE: 75.67 u/L
  LIPASE: 11.5 u/L
  PHOSPHORUS: 9.62 mg/dL
  POTASSIUM: 5.45 MEQ/L
  SODIUM: 143.1 MEQ/L
  TOTAL BILIRUBIN: 0.2 mg/dL
  TOTAL PROTEIN: 6.08 G/DL
  URIC ACID: 0.68 mg/dL
[3]
  ABSOLUTE BASOPHIL: 0 CELLS/uL
  ABSOLUTE EOSINOPHIL: 0 CELLS/uL
  ABSOLUTE LYMPHOCYTE: 6967 CELLS/uL
  ABSOLUTE MONOCYTE: 31.33 CELLS/uL
  ABSOLUTE SEGMENTED NEUTROPHIL: 568.33 CELLS/uL
  BASOPHIL: 0%
  EOSINOPHIL: 0%
  ERYTHROCYTE COUNT: 5.13 x10E6/uL
  HEMATOCRIT: 33.67%
  HEMOGLOBIN: 13.23 G/DL
  LEUKOCYTE COUNT: 7.57 x10E3/uL
  LYMPHOCYTE: 92%
  MEAN CORPUSCULAR HEMOGLOBIN: 25.8 pg
  MEAN CORPUSCULAR HEMOGLOBIN CONCENTRATION: 39.3 G/DL
  MEAN CORPUSCULAR VOLUME: 65.53 fL
  MONOCYTE: 0.33%
  NEUTROPHIL: 7.67%
  NUCLEATED RED BLOOD CELLS: 0 /100WBC
  PLATELET COUNT: 1145.33 x10E3/uL
  ALANINE AMINOTRANSFERASE: 52 u/L
  ALBUMIN: 4.23 G/DL
  ALKALINE PHOSPHATASE: 313.33 u/L
  ASPARTATE AMINOTRANSFERASE: 91.67 u/L
  BLOOD UREA NITROGEN: 11.67 mg/dL
  CARBON DIOXIDE: 32.33 mmol/L
  CHLORIDE: 99.5 MEQ/L
  CHOLESTEROL: 73 mg/dL
  CREATINE PHOSPHOKINASE: 427 u/L
  CREATININE: 0.31 mg/dL
  GLUCOSE: 163 mg/dL
  LACTATE DEHYDROGENASE: 93 u/L
  LIPASE: 13.33 u/L
  PHOSPHORUS: 11.2 mg/dL
  POTASSIUM: 5.61 MEQ/L
  SODIUM: 143.75 MEQ/L
  TOTAL BILIRUBIN: 0.1 mg/dL
  TOTAL PROTEIN: 6.17 G/DL
  URIC ACID: 0.83 mg/dL
